Data: publication PMC8309014, “Lactose-Gated Mesoporous Silica Particles for Intestinal Controlled Delivery of Essential Oil Components: An In Vitro and In Vivo Study” (Pharmaceutics, 2021)

What was measured:
MCP-1 = test: Inflammatory response measurement: MCP-1 release in apical media; format: cell-based, Human; conditions: 24 h, EOC 200 μM free or in M41-EOC-L; LPS 10 μg/mL positive control
Experimental: The Caco-2 cell epithelia were incubated in cell culture medium with each treatment, free EOCs (200 μM) and […] solids (concentration of particles corresponding to a 200 μM EOC-payload), during the time required to perform the assay: 90 min for EOCs permeability (see Section 2.13) and 24 h for the other interaction studies (Lucifer yellow, Section 2.14, and inflammatory response measurement, Section 2.15). In addition, some cell inserts were incubated with free medium at the same conditions as negative controls. TEER measurements were performed before and after each treatment to ascertain the validity of the membranes before the assay and to know the treatment's effect on them. Inflammatory cytokine and chemokine release (IL-8, MCP-1) was measured in the apical media from the enterocyte layers after 24 h of treatment with the corresponding […]-EOC-L and free EOCs. For the measurement, a Bio-Plex 1 MAGPIX TM Multiplex Reader (Bio-Rad) was employed according to the manufacturer-described-procedure. The cells were stimulated with 10 μg/mL LPS as positive control.

in vivo = conditions: male, Wistar, rat, po
Experimental: The EOC concentration in the aliquots of each specific section ((i) cargo release experiments, Section 2.6; (ii) EOCs permeability across the intestinal barriers, Section 2.13; and (iii) in vivo pharmacokinetic assays, Section 2.17) was analyzed by HPLC. For Thy and Eug molecules, the mobile phase used was ACN:H2O 50:50 v/v with 0.05% of TFA and absorbance detector using λex = 280 nm. For Cin, the mobile phase was ACN:H2O 85:15 v/v with 0.05% of TFA and λex = 254 nm. […] of volume injection were used and a flow of 1 mL/min was fixed. The methods were previously validated with adequate linearity, precision and accuracy (R > 0.99 and coefficient of variation < 5%).
In vivo experiments with M41-Cin-L in a Wistar rat model were carried out in order to study the concentration of cinnamaldehyde, free and encapsulated, in plasma and in the different gastrointestinal sections. The animal study was approved by the Scientific Committee of the Faculty of Pharmacy Universidad Miguel Hernández, Elche (project reference DI-MBS-02-15) and followed the guidelines described in the EC Directive 86/609, the Council of the Europe Convention ETS 123 and Spanish national laws governing the use of animals in research (Real Decreto 223/1988, BOE 67, 18-3-98:8509-8511). […] The concentration of Cin in each sample was determined by HPLC following the methodology described in Section 2.7.

SMILES	MCP-1 levels in the apical compartment (MCP-1)	Tmax (in vivo)	half-life (in vivo)
C=CCc1ccc(O)c(OC)c1 [Eug, eugenol]	increases its levels	–	–
O=C/C=C/c1ccccc1 [Cin, cinnamaldehyde]	–	0.75 h	1.36 h
